According to patent US20260165953A1, “THE HIPPO PATHWAY AS A PHARMACOLOGIC TARGET FOR TREATING REFRACTIVE DISORDERS” (Centre for Eye and Vision Research Limited, priority 2022, published 2026):

Tests used:
[1] = Signs of toxicity in animal models; format: in vivo
[2] = test system: form-deprivation myopia (FDM) in chicks; assay: Unilateral form-deprivation myopia (FDM) in chicks, four intravitreal injections every alternate day, 7-day diffuser lens treatment; format: in vivo, White Leghorn chicks (Gallus gallus); details: for axial length, mean interocular difference ± SD / refractive error (myopic progression), mean interocular difference ± SD / increase in choroidal thickness compared to the vehicle group / choroidal thickness, mean interocular difference ± SD: after 7-day treatment; for axial length, mean interocular difference ± SD: vehicle 0.75±0.19 mm; for refractive error (myopic progression), mean interocular difference ± SD: vehicle −10.0±2.56 D; for choroidal thickness, mean interocular difference ± SD: vehicle 43.02±8.87 μm
Method: XMU-MP-1, known for its reversible and selective inhibition of MST1/2 (upstream to YAP/TAZ), leading to a significant increase in the activity of the Hippo pathway effector YAP, undergoes testing in a dose-dependent manner for its impact on form-deprivation myopia (FDM) in chicks.
White Leghorn chicks (Gallus gallus) from specific pathogen-free eggs (SPF, Jinan, China) are raised in standard cages with adequate food and water, maintaining a temperature of 25° C. and a 12 h:12 h light/dark cycle. The experimental period spans from postnatal 7 days (PN 7) to 14 days (PN 14). A unilateral FDM model is established using a published protocol, involving four intravitreal injections performed every alternate day. Following the first injection, diffuser lenses are attached to the right eye, with lenses covering only the XMU-MP-1 injected eye (unilateral FDM). XMU-MP- 1, dissolved in 10% DMSO with 90% Corn oil, is injected monocularly using a 0.3 mm (30 G)×8 mm needle into the vitreous through the skin, sclera, choroid, and retina close to the margin of the upper orbit. Contralateral eyes receive no lens treatment. Four concentrations of XMU-MP-1 (0.02, 0.2, 2, and 20 mmol/L) are selected for evaluation.
Animals are randomly assigned to five groups, encompassing the FDM with vehicle treatment group (vehicle group, 10% DMSO+90% Corn oil, n=14), FDM with 0.02 mmol/L XMU-MP-1 treatment group (XMU-MP-1, 0.02 mmol/L group, n=5), FDM with 0.2 mmol/L XMU-MP-1 treatment group (XMU-MP-1, 0.2 mmol/L group, n=5), FDM with 2 mmol/L XMU-MP-1 treatment group (XMU-MP-1, 2 mmol/L group, n=13), and FDM with 20 mmol/L XMU-MP-1 treatment group (XMU-MP-1, 20 mmol/L group, n=14).
Refractive errors are assessed using a streak retinoscope, and ocular parameters are measured with a high-frequency A-scan ultrasound system equipped with a 30 MHz transducer (Panametrics, Inc., Waltham, MA) before and after treatment. The spherical equivalent (S.E.) is derived from the refractive status (S.E.=spherical power+½ cylindrical power), and axial length is defined from the front of the cornea to the back of the vitreous chamber.
For statistical analysis, after the 7-day lens treatment period, interocular differences (the difference between the diffuser-treated eyes and the contralateral fellow eyes) are calculated for six ocular parameters (refractive error, anterior chamber depth, lens thickness, vitreous chamber depth (FIG. 4B), axial length, and choroidal thickness). Mean interocular differences±SD are presented, and the significance of the dose-effect is analyzed using ANOVA. Post hoc testing (Dunnett's method) is employed where appropriate, with significance levels denoted as follows: ns, not significant; *, P<0.05; **, P<0.01; ****, P<0.0001.

[3] = 2 mmol/L XMU-MP-1 intravitreal, n=13, P<0.001
[4] = 20 mmol/L XMU-MP-1 intravitreal, n=14, P<0.0001

CN1C(=O)c2sccc2N(C)c2nc(Nc3ccc(S(N)(=O)=O)cc3)ncc21 [XMU-MP-1]
signs of toxicity [1]: no discernible signs of toxicity | axial length, mean interocular difference ± SD ([2]; 0.02 mmol/L XMU-MP-1 intravitreal, n=5): 0.73±0.13 mm | axial length, mean interocular difference ± SD ([2]; 0.2 mmol/L XMU-MP-1 intravitreal, n=5, P<0.001): 0.41±0.24 mm | refractive error (myopic progression), mean interocular difference ± SD ([2]; 0.2 mmol/L XMU-MP-1 intravitreal, n=5, P<0.01): −6.05±2.97 D | inhibition of myopia, based on refractive error and axial length data ([2]; 0.2 mmol/L group): about 40% | increase in choroidal thickness compared to the vehicle group ([2]; 2 mmol/L XMU-MP-1 intravitreal): about 50% | axial length, mean interocular difference ± SD [2, 3]: 0.36±0.20 mm | choroidal thickness, mean interocular difference ± SD [2, 3]: 22.07±15.13 μm | refractive error (myopic progression), mean interocular difference ± SD ([2]; 2 mmol/L XMU-MP-1 intravitreal, n=13, P<0.0001): −4.69±2.75 D | inhibition of myopia, based on refractive error and axial length data ([2]; 2 mmol/L group): about 53% | increase in choroidal thickness compared to the vehicle group ([2]; 20 mmol/L XMU-MP-1 intravitreal): ~70% | axial length, mean interocular difference ± SD [2, 4]: 0.27±0.22 mm | choroidal thickness, mean interocular difference ± SD [2, 4]: 12.83±17.96 μm | refractive error (myopic progression), mean interocular difference ± SD [2, 4]: −3.51±2.89 D | suppression of myopia development ([2]; highest dose tested (200 nmol)): about 65% | inhibition of lens-induced myopia ([2]; intravitreal injection): robustly inhibits lens-induced myopia | suppression of myopia progression, dose dependence ([2]; intravitreal injection, 0.02-20 mmol/L, ANOVA significant dose-response effect (p<0.0001)): can suppress myopia progression through intravitreal injection in a dose-dependent manner
